{"source": "ChEMBL document CHEMBL4152309", "about": "“N-phenylsulfonyl-3,5-bis(arylidene)-4-piperidone derivatives as activation NF-κB inhibitors in hepatic carcinoma cell lines” (Eur J Med Chem, 2018)", "key": {"HepG2 [1]": {"system": "HepG2", "assay": "Induction of apoptosis in human HepG2 cells assessed as increase in early apoptotic cells after 24 hrs by Annexin-V-FITC/propidium iodide staining based flow cytometry", "type": "functional, cell-based"}, "HepG2 [2]": {"system": "HepG2", "assay": "Induction of apoptosis in human HepG2 cells assessed as increase in cleaved caspase 3 expression after 24 hrs by Western blot analysis", "type": "functional, cell-based"}, "QGY-7703 [3]": {"system": "QGY-7703", "assay": "Induction of apoptosis in human QGY7703 cells assessed as increase in late apoptotic cells after 24 hrs by Annexin-V-FITC/propidium iodide staining based flow cytometry", "type": "functional, cell-based"}, "SMMC-7721 [4]": {"system": "SMMC-7721", "assay": "Induction of apoptosis in human SMMC7721 cells assessed as increase in late apoptotic cells after 24 hrs by Annexin-V-FITC/propidium iodide staining based flow cytometry", "type": "functional, cell-based"}, "RAW264.7 [5]": {"system": "RAW264.7", "assay": "Inhibition of LPS-stimulated NFkappaB activation in mouse RAW264.7 cells assessed as reduction in p65 phosphorylation at 1 to 10 uM pretreated for 2 hrs followed by LPS-stimulation and measured after 15 mins by Western blot method", "type": "cell-based"}, "L02": {"system": "L02", "assay": "Cytotoxicity against human LO2 cells assessed as reduction in cell viability after 24 hrs by MTT assay", "type": "cell-based", "settings": "L02, 24 h"}, "RAW264.7 [6]": {"system": "RAW264.7", "assay": "Inhibition of LPS-stimulated NFkappaB activation in mouse RAW264.7 cells assessed as reduction in IkappaB phosphorylation at 1 to 10 uM pretreated for 2 hrs followed by LPS-stimulation and measured after 15 mins by Western blot method", "type": "cell-based"}, "HepG2 [7]": {"system": "HepG2", "assay": "Inhibition of TNFalpha-stimulated NFkappaB activation in human HepG2 cells assessed as reduction in IkappaB phosphorylation pretreated for 2 hrs followed by LPS-stimulation and measured after 15 mins by Western blot method", "type": "cell-based"}, "HepG2 [8]": {"system": "HepG2", "assay": "Induction of apoptosis in human HepG2 cells assessed as decrease in Bcl2 expression after 24 hrs by Western blot analysis", "type": "functional, cell-based"}, "QGY-7703 [9]": {"system": "QGY-7703", "assay": "Cytotoxicity against human QGY7703 cells assessed as reduction in cell viability after 24 hrs by MTT assay", "type": "functional, cell-based"}, "RAW264.7 [10]": {"system": "RAW264.7", "assay": "Anti-inflammatory activity in mouse RAW264.7 cells assessed as inhibition of LPS-induced TNFalpha secretion at 10 uM pretreated for 2 hrs followed by LPS stimulation and measured after 22 hrs by ELISA", "type": "functional, cell-based"}, "[11]": {"assay": "Cytotoxicity against human HHL5 cells assessed as reduction in cell viability after 24 hrs by MTT assay", "type": "cell-based", "settings": "HHL-5, 24 h"}, "SMMC-7721 [12]": {"system": "SMMC-7721", "assay": "Induction of apoptosis in human SMMC7721 cells assessed as increase in early apoptotic cells after 24 hrs by Annexin-V-FITC/propidium iodide staining based flow cytometry", "type": "functional, cell-based"}, "[13]": {"target": "Transcription factor p65 (Mus musculus) (UniProt Q04207)", "sequence (Q04207 whole entry)": "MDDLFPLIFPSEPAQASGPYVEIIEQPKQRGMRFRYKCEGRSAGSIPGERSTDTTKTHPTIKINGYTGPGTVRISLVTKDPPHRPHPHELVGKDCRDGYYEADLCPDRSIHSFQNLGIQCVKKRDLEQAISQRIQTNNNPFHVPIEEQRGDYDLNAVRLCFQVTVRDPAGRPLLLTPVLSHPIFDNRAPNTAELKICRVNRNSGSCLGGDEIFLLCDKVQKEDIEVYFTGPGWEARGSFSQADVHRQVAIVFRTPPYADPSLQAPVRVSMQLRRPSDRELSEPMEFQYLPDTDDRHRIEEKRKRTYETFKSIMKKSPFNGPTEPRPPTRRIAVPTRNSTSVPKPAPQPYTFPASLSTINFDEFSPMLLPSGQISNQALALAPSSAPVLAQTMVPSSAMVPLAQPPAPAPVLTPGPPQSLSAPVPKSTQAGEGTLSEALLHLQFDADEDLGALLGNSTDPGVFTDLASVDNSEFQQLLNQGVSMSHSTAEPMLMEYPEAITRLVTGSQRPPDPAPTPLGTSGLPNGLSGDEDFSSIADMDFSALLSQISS", "assay": "Inhibition of LPS-stimulated NFkappaB p65 nuclear translocation in mouse RAW264.7 cells at 5 uM pretreated for 2 hrs followed by LPS-stimulation and measured after 15 mins by DAPI staining based microscopic analysis", "type": "cell-based"}, "[14]": {"assay": "Cytotoxicity against mouse RAW264.7 cells assessed as cell viability at 10 uM after 24 hrs by MTT assay relative to control", "type": "cell-based", "settings": "read-out: Activity"}, "HepG2 [15]": {"system": "HepG2", "assay": "Induction of apoptosis in human HepG2 cells assessed as increase in late apoptotic cells after 24 hrs by Annexin-V-FITC/propidium iodide staining based flow cytometry", "type": "functional, cell-based"}, "SMMC-7721 [16]": {"system": "SMMC-7721", "assay": "Cytotoxicity against human SMMC7721 cells assessed as reduction in cell viability after 24 hrs by MTT assay", "type": "functional, cell-based"}, "RAW264.7 [17]": {"system": "RAW264.7", "assay": "Anti-inflammatory activity in mouse RAW264.7 cells assessed as inhibition of LPS-induced IL-6 secretion at 10 uM pretreated for 2 hrs followed by LPS stimulation and measured after 22 hrs by ELISA", "type": "functional, cell-based"}, "HepG2 [18]": {"system": "HepG2", "assay": "Cytotoxicity against human HepG2 cells assessed as reduction in cell viability after 24 hrs by MTT assay", "type": "functional, cell-based"}, "HepG2 [19]": {"system": "HepG2", "assay": "Induction of apoptosis in human HepG2 cells assessed as increase in Bax expression after 24 hrs by Western blot analysis", "type": "functional, cell-based"}, "QGY-7703 [20]": {"system": "QGY-7703", "assay": "Induction of apoptosis in human QGY7703 cells assessed as increase in early apoptotic cells after 24 hrs by Annexin-V-FITC/propidium iodide staining based flow cytometry", "type": "functional, cell-based"}, "HepG2 [21]": {"system": "HepG2", "assay": "Inhibition of TNFalpha-stimulated NFkappaB activation in human HepG2 cells assessed as reduction in p65 phosphorylation pretreated for 2 hrs followed by LPS-stimulation and measured after 15 mins by Western blot method", "type": "cell-based"}, "[22]": {"target": "Transcription factor p65 (Homo sapiens) (UniProt Q04206)", "sequence (Q04206 whole entry)": "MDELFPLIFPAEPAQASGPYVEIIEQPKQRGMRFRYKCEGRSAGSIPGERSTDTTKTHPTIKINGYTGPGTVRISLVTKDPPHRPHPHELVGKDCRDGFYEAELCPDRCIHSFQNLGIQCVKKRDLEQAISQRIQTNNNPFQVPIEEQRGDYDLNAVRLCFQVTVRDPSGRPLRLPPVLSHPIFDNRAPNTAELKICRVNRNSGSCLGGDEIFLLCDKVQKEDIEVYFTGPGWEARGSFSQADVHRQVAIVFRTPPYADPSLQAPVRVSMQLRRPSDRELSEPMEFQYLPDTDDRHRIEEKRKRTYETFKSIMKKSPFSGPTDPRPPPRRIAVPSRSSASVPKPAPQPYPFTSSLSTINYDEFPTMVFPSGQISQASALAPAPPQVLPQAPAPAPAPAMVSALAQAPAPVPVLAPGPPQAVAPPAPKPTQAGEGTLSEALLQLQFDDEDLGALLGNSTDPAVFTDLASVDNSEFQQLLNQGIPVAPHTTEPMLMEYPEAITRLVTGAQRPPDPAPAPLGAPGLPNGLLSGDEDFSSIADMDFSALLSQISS", "assay": "Inhibition of TNFalpha-stimulated NFkappaB p65 nuclear translocation in human HepG2 cells at 5 uM pretreated for 2 hrs followed by LPS-stimulation and measured after 15 mins by DAPI staining based microscopic analysis", "type": "cell-based"}}, "note": "Activity calls are given as the source filed them. No cut-off for these calls is given here.", "data": [{"smiles": "COc1cc(/C=C2\\CN(S(=O)(=O)c3ccc(NC(C)=O)cc3)C/C(=C\\c3ccc(C#N)cc3)C2=O)cc(OC)c1OC", "values": [{"measurement": "Activity", "setting": "HepG2 [1]", "result": "Dose-dependent effect"}, {"measurement": "Activity", "setting": "HepG2 [2]", "result": "Dose-dependent effect"}, {"measurement": "Activity", "setting": "QGY-7703 [3]", "result": "Dose-dependent effect"}, {"measurement": "Activity", "setting": "SMMC-7721 [4]", "result": "Dose-dependent effect"}, {"measurement": "inhibition", "setting": "RAW264.7 [5]", "result": "Active"}, {"measurement": "IC50", "setting": "L02", "result": 13.6, "unit": "µM"}, {"measurement": "inhibition", "setting": "RAW264.7 [6]", "result": "Active"}, {"measurement": "inhibition", "setting": "HepG2 [7]", "result": "Dose-dependent effect"}, {"measurement": "Activity", "setting": "HepG2 [8]", "result": "Dose-dependent effect"}, {"measurement": "Activity", "setting": "QGY-7703 [9]", "result": "Dose-dependent effect"}, {"measurement": "IC50", "setting": "QGY-7703 [9]; QGY-7703, 24 h", "result": 1.89, "unit": "µM"}, {"measurement": "inhibition", "setting": "RAW264.7 [10]", "result": "Active"}, {"measurement": "IC50", "setting": "[11]", "result": 13.6, "unit": "µM"}, {"measurement": "Activity", "setting": "SMMC-7721 [12]", "result": "Dose-dependent effect"}, {"measurement": "inhibition", "setting": "[13]", "result": "Active"}, {"measurement": "viability at 24 h, 10 µM", "setting": "[14]", "result": "> 80", "unit": "%"}, {"measurement": "Activity", "setting": "HepG2 [15]", "result": "Dose-dependent effect"}, {"measurement": "Activity", "setting": "SMMC-7721 [16]", "result": "Dose-dependent effect"}, {"measurement": "IC50", "setting": "SMMC-7721 [16]; SMMC-7721, 24 h", "result": 1.73, "unit": "µM"}, {"measurement": "inhibition", "setting": "RAW264.7 [17]", "result": "Active"}, {"measurement": "Activity", "setting": "HepG2 [18]", "result": "Dose-dependent effect"}, {"measurement": "IC50", "setting": "HepG2 [18]; HepG2, 24 h", "result": 2.89, "unit": "µM"}, {"measurement": "Activity", "setting": "HepG2 [19]", "result": "Dose-dependent effect"}, {"measurement": "Activity", "setting": "QGY-7703 [20]", "result": "Dose-dependent effect"}, {"measurement": "inhibition", "setting": "HepG2 [21]", "result": "Dose-dependent effect"}, {"measurement": "inhibition", "setting": "[22]", "result": "Active"}]}]}
